Measurements taken from US11197862B2, “Methods of preventing toxicity of platinum drugs” (XOMICS BIOPHARMA, INC., priority 2015, dated 2021).

How the values were obtained:
[1] = tested on: Balb/c mice exposed to chronic treatment with Oxaliplatin; assay: Morphometry and histopathology of DRG neurons in chronic oxaliplatin neuropathy model; type: in vivo, mouse
Excerpt: The investigator was blind to the nerve and DRG conditions for these analyses. Three animals from each group were sacrificed four days after the last oxaliplatin dose. The left sciatic nerves and the L4-L5 DRGs were harvested and processed following previously reported protocols, resin embedded and sectioned for light and electron microscope analysis. For the light microscopy analysis, 1 μm semithin sections were stained with toluidine blue and examined using a Nikon Eclipse E200 light microscope (Nikon, Firenze, Italy). For the electron microscopy analysis, ultrathin sections (80 nm) counterstained with uranyl acetate and lead citrate, were examined with a Philips CM 10 transmission electron microscope (Philips, Eindhoven, Netherlands).
The investigator was blind to the experimental conditions of the tissue for these experiments. One micron thick semithin sections stained with toluidine blue were used for morphometric examination of the DRGs from control (n=3) and oxaliplatin-treated mice (n=3). (Renn et al. Molecular Pain 2011, 7:29). Only the cells where the nucleolus was included in the section plane of 50 μm-spaced out sections were considered to avoid the overlapping of the same cell bodies and they were analyzed with computer-assisted image analysis (ImageJ, NIH) to measure the soma and nucleolus size of at least 300 DRG neurons per mouse.

[2] = tested on: Balb/c mice exposed to chronic treatment with Oxaliplatin; assay: Dynamic Plantar Aesthesiometer Test in chronic oxaliplatin neuropathy model; type: in vivo, mouse; settings: OXA 3.5 mg/kg iv, 8 cycles ± BFMD 30 mg/kg ip + 15 mg/kg iv
Method: The Dynamic Plantar Aesthesiometer Test was used to determine the alterations in mechanical pain perception and their changes due to pharmacological treatment. Mice were accustomed to the device 3 days before performing the tests after a 1 hour acclimatization period followed by testing. The mechanical nociceptive threshold was assessed using a Dynamic Aesthesiometer Test (model 37450, Ugo Basile Biological Instruments, Comerio. Italy), which generated a linearly increasing mechanical force. At each time point, after the acclimatization period, a servo-controlled mechanical stimulus (a pointed metallic filament, 0.5-mm diameter) was applied to the plantar surface of the hind paw, which exerted a progressively increasing punctuate pressure, reaching up to 15 g within 15 seconds. The pressure evoking a clear voluntary hind-paw withdrawal response was recorded automatically and taken as representing the mechanical nociceptive threshold index. The mechanical threshold was always assessed alternatively on each side every 2 minutes on 3 occasions to yield a mean value. The results represent the maximal pressure (expressed in grams) tolerated by the animals. There was an upper limit cutoff of 30 seconds, after which the mechanical stimulus was automatically terminated.

[3] = tested on: Balb/c mice exposed to chronic treatment with Oxaliplatin; assay: Cold Plate Test in chronic oxaliplatin neuropathy model; type: in vivo, mouse; settings: OXA 3.5 mg/kg iv ± BFMD 30 mg/kg ip + 15 mg/kg iv
Method: Cold Plate Test was used to determine the alterations in cold temperature related pain perception and their changes due to pharmacological treatment. Cold Plate Test was performed by using an apparatus (35100—Hot/Cold Plate. Ugo Basile instruments) composed by a Plexiglas cylinder and a thermostatic plate, able to reach variable temperatures. The mice were placed on the plate set at +4° C., free to move and walk. Two blinded experimenters simultaneously determine the number of pain signs (e.g. jumping, licking, etc.) in a trial of 5 minutes.

[4] = tested on: Balb/c mice exposed to chronic treatment with Oxaliplatin; assay: Caudal nerve conduction study in chronic oxaliplatin neuropathy model; type: in vivo, mouse; settings: OXA 3.5 mg/kg iv, 8 cycles ± BFMD 30 mg/kg ip + 15 mg/kg iv
Method: The development of peripheral neuropathy after chronic administration of drugs was assessed by evaluating the nerve conduction velocity (NCV) along caudal and digital nerve using an electromyography apparatus (Myto2 ABN Neuro, Firenze, Italy). Caudal NCV was determined by placing a couple of recording needle electrodes at the base of the tail and a couple of stimulating needle electrodes 3.5 cm distally to the recording points. Similarly, the digital NCV was determined by placing the recording electrodes close to the ankle bone and the stimulating electrodes close to the fourth toe near the digital nerve. The intensity, duration and frequency of stimulation were set up in order to obtain optimal results. All the neurophysiological determinations were performed under standard conditions in a temperature-controlled room (22+/−2° C.) and the animal under isoflurane anesthesia along the whole procedure with continuous monitoring of vital signs.

[5] = Plasma levels of buflomedil and oxaliplatin in the chronic model; type: in vivo, mouse; settings: 15 minutes after the 8th cycle
Method: At baseline (before drug treatment) and at the end of treatment, caudal nerve conduction study (NCS), behavioral tests (Dynamic and Cold Plate), histopathology study were performed. Serum samples were collected at the end of treatment.

[6] = cited from earlier work

With `O=C(O)C(=O)O.[NH-][C@@H]1CCCC[C@H]1[NH-].[Pt+2]` [Oxaliplatin] the “area of DRG neuron cell bodies and nucleoli (morphometry)” value ([1]; OXA 3.5 mg/kg iv twice a week for 4 weeks (8 cycles) ± BFMD 30 mg/kg ip + 15 mg/kg iv) was “significant decrease in the area”, the “DRG histopathology (light and electron microscopy)” value ([1]; OXA 3.5 mg/kg iv, 8 cycles ± BFMD 30 mg/kg ip + 15 mg/kg iv) was “high incidence of multinucleolated cell bodies with eccentric nucleoli” and the “mechanical allodynia, Dynamic Aesthesiometer Test at the end of treatment” value [2] was “development of mechanical allodynia with a reduction in the latency until withdrawal”. The “Cold Plate Test pain signs after third injection” value ([3]; 3 cycles) was “significant increase in pain signs versus CTRL and all groups of treatment”, the “Cold Plate Test pain signs at the end of treatment (eight injections)” value ([3]; 8 cycles) was “significant increase in pain signs versus CTRL and BFMD” and the “caudal nerve action potential amplitude” value [4] was “significant decrease in caudal amplitude”. For the same compound, the “caudal nerve conduction velocity” value [4] was “significant reduction in caudal nerve conduction velocity vs. control mice”, the “pharmacokinetic interaction between BFMD and OXA (plasma levels)” value [5] was “unaffected by the presence of BFMD” and the “patients with severe PN (Grade 3 or higher)” value ([6]; cumulative doses 510-765 mg/m^2) was “up to 10%”. The “patients developing severe PN” value ([6]; cumulative doses above 1000 mg/m^2, Argriou 2012) was “approximately 50%”.
